Source: patent US20230272392A1, “METHODS OF TFEB ACTIVATION AND LYSOSOMAL BIOGENESIS AND COMPOSITIONS THEREFOR” (Casma Therapeutics, Inc., priority 2020, published 2023)

How the values were obtained:
TFE3 and FLCN = TFE3 and FLCN subcellular localization upon dimerizer-induced mitophagy in U2OS cells; type: cell-based; details: 25 nM, 3 hours; control KO, RB1CC1 KO, GABARAP triple KO U2OS cells; FIG. 50
Experimental: (§1) For high content image acquisition, cells were plated in 96-well glass bottom, black wall plates (Greiner, #655892) or 384-well polystyrene, black-wall plates (Greiner, #781091) and grown overnight to 70% confluency. Treatments were performed as indicated. Cells were fixed for 10 minutes in either −20° C. methanol or 4% paraformaldehyde (Electron Microscopy Sciences). Cells were blocked and permeabilized in a solution containing 1:1 Odyssey blocking buffer (LiCor)/PBS (Invitrogen) with 0.1% Triton X-100 (Sigma) and 1% normal goat serum (Invitrogen) for 1 hour at room temperature. Primary antibodies were added overnight at 4° C. in blocking buffer described above. After washing plates with PBS using an EL-406 plate washer (BioTek), secondary Alexa-conjugated antibodies (Life Technologies) were diluted 1:1,000 in blocking solution and applied for 1 hour at room temperature. Cells were then washed again in PBS as described and imaged using an INCELL 6500 high-content imager (GE Healthcare). Images were analyzed using the GE InCarta software.

GPNMB = GPNMB protein levels (TFEB target gene) upon chronic treatment, Western blot; type: cell-based; details: FNIP1/2 DKO cells reconstituted with FNIP1; FIG. 44D
Description: For preparation of total cell lysates, cells were lysed in RIPA buffer (#9806, Cell Signaling Technology) supplemented with sodium dodecyl sulfate to 1% final concentration (SDS, Boston BioProducts) and protease inhibitor tablets (Complete EDTA-free, Roche). Lysates were homogenized by sequential passaging through Qiashredder columns (Qiagen), and protein levels were quantified by Lowry DC protein assay (Bio-Rad). Proteins were denatured in 6×Laemmli SDS loading buffer (Boston BioProducts) at 100° C. for 5 minutes. Equivalent amounts of total proteins were separated on Tris-Glycine TGx SDS-PAGE gels (Bio-Rad) for Western blotting. Proteins were transferred to nitrocellulose using standard methods and membranes were blocked in 5% non-fat dry milk (Cell Signaling Technology) in TBS with 0.2% Tween-20 (Boston BioProducts). Primary antibodies were diluted in 5% bovine serum albumin (BSA, Cell Signaling Technology) in TBS with 0.2% Tween-20 and were incubated with membranes at 4° C. overnight. HRP-conjugated secondary antibodies were diluted in blocking solution (1:20,000, ThermoFisher) and incubated with membranes at room temperature for 1 hour. Western blots were developed using West PicoPLUS Super Signal ECL reagents (Pierce) and film (GEHealthcare).

LC3 [1] = assay: LC3 lipidation (LC3-I to LC3-II conversion), Western blot and cell images; type: cell-based; details: for LC3 lipidation (conversion of LC3 "I" form to "II" form): wild type (WT) and autophagy-deficient cells, FIGS. 1, 2, 3
Description: (§2) For preparation of total cell lysates, cells were lysed in RIPA buffer (#9806, Cell Signaling Technology) supplemented with sodium dodecyl sulfate to 1% final concentration (SDS, Boston BioProducts) and protease inhibitor tablets (Complete EDTA-free, Roche). Lysates were homogenized by sequential passaging through Qiashredder columns (Qiagen), and protein levels were quantified by Lowry DC protein assay (Bio-Rad). Proteins were denatured in 6×Laemmli SDS loading buffer (Boston BioProducts) at 100° C. for 5 minutes.
(§3) Equivalent amounts of total proteins were separated on Tris-Glycine TGx SDS-PAGE gels (Bio-Rad) for Western blotting. Proteins were transferred to nitrocellulose using standard methods and membranes were blocked in 5% non-fat dry milk (Cell Signaling Technology) in TBS with 0.2% Tween-20 (Boston BioProducts). Primary antibodies were diluted in 5% bovine serum albumin (BSA, Cell Signaling Technology) in TBS with 0.2% Tween-20 and were incubated with membranes at 4° C. overnight. HRP-conjugated secondary antibodies were diluted in blocking solution (1:20,000, ThermoFisher) and incubated with membranes at room temperature for 1 hour. Western blots were developed using West PicoPLUS Super Signal ECL reagents (Pierce) and film (GEHealthcare).

TFEB [2] = assay: TFEB activation (Western blot / nuclear accumulation) in cell lines; type: cell-based; details: for TFEB activation under co-treatment with BafA1: FIG. 16
Description: as §2, §3, §1

LC3 [3] = assay: LC3 puncta co-localized with LAMP1 in primary bone marrow-derived macrophages, wild-type vs ATG16L1 K490A knock-in; type: cell-based, mouse; details: FIG. 12
Experimental: For LC3 and LAMP1 staining in primary BMDMs, cells were plated on 18 mm coverslips. The next day, cells were treated as indicated and cells were fixed in ice cold methanol as described above. Cells were then blocked in PBS+5% BSA for 1 hour before addition of primary antibodies (anti-LC3A/B, CST #4108, 1:100; anti-LAMP1, BD #555798, 1:100) and diluted in blocking buffer overnight at 4° C. Cells were then washed and incubated with fluorescent secondary antibodies in blocking buffer for 1 hour at room temperature. Cells were washed in PBS incubated with DAPI and mounted on glass slides using Prolong anti-fade reagent (Life Technologies).
The K490A point mutation was introduced into C57/BL6 mice via direct zygote injection of CRISPR/Cas9 reagents. Briefly, a single stranded guide sequence was designed and synthesized along with a tracrRNA from Dhamacon. A repair donor single stranded DNA sequence was designed to introduce the K490A point mutation and mutate the PAM sequence to stop re-targeting of the Cas9 complex to already edited DNA. These reagents, along with recombinant Cas9, were injected into mouse zygotes. Pups born from these injections were genotyped via Transnetyx and heterozogous founders were bred with wild-type mice to obtain pure heterozygote animals. Further breeding yielded mice homozygous for the K490A mutation. […]

TFEB [4] = assay: TFEB activation in ATG16L1 KO mouse macrophages reconstituted with ATG16L1 WD40 point mutants; type: cell-based; details: immortalized ATG16L1 KO mouse macrophages; FIG. 21
Experimental: For endogenous TFEB staining in mouse macrophages, cells were fixed in 3.7% formaldehyde for 15 minutes at room temperature, washed in PBS and permeabilized in 0.2% triton/PBS for 5 minutes. Cells were then processed as above for primary (anti-TFEB, Bethyl Laboratories, #A303-673A, 1:200) and secondary antibodies. Images were acquired using a Confocal Zeiss LSM 780 microscope (Carl Zeiss Ltd) equipped with a 40×oil immersion 1.40 numerical aperture (NA) objective using Zen software (Carl Zeiss Ltd). Analysis was performed using Image J. For nuclear cytosol quantification, the ratio of fluorescent intensity of TFEB within the DAPI was mask versus the cytosol of 30 cells across 2 independent experiments were measured.

[5] = tested on: U2OS cells expressing mKeima, FRB-p62, and FKBP-FIS1; assay: Mitophagy efficiency, Keima fluorescence shift assay in U2OS cells; type: cell-based; details: dimerizer-induced mitophagy; FIG. 49

Compound | LC3 lipidation (conversion of LC3 "I" form to "II" form) (LC3 [1]) | TFEB activation under co-treatment with BafA1 (TFEB [2]) | LC3 puncta formation co-localized with LAMP1, wild-type vs ATG16L1^K490A cells (LC3 [3]) | TFEB activation in macrophages with ATG16L1-F467A or ATG16L1-K490A (TFEB [4]) | also measured
CO[C@H]1[C@@H](O)[C@H](C)C[C@H](C)/C=C/C=C/C=C(\C)[C@@H](c2c[nH]c3c(C)cccc23)C[C@@H]2CC[C@@H](C)[C@@](O)(O2)C(=O)C(=O)N2CCCC[C@H]2C(=O)O[C@H]([C@H](C)C[C@@H]2CC[C@@H](O)[C@H](OC)C2)C[C@H](O)[C@H](C)/C=C(\C)[C@H]1O [AP21967] |  |  |  |  | TFE3 nuclear localization and FLCN punctate structures (TFE3 and FLCN): seen in CTRL and RBICC1_KO (autophagy-deficient) cells but not in GABARAP_TKO cells
COc1ccc(-c2ccc3c(N4CCOC[C@@H]4C)nc(N4CCOC[C@@H]4C)nc3n2)cc1CO [AZD8055] | able to regulate LC3 lipidation in WT but not autophagy-deficient cells | did not prevent TFEB activation | sensitivity to the ATG16L1^K490A mutation was not observed | activated TFEB irrespective of ATG16L1 status | GPNMB protein levels (GPNMB): largely suppressed; LC3 lipidation: dependence on VPS34 inhibition and Bafilomycin A1 co-treatment (LC3 [1]; FIG. 4): induced conversion of LC3 in a manner sensitive to VPS34 inhibition and was potentiated with the vATPase inhibitor Bafilomycin A1 (BafA1); TFEB activation (with GPNMB readout) (TFEB [2]; FIG. 44D): robust TFEB activation; TFEB nuclear accumulation / activation with SopF expression (TFEB [2]; SopF expression vs SopF negative controls, FIG. 15): did not impact TFEB activation
CO/C1=C\C(C)=C\[C@@H](C)[C@@H](O)[C@@H](C)C/C(C)=C/C=C/[C@H](OC)[C@@H]([C@@H](C)[C@@H](O)[C@H](C)[C@@]2(O)C[C@@H](O)[C@H](C)[C@@H](C(C)C)O2)OC1=O [BafA1, Bafilomycin A1] |  |  |  |  | Keima signal (mitophagy) under co-treatment [5]: blocked the Keima signal
Cc1ccc(S(=O)(=O)Nc2ccccc2N2CCCCC2)s1 [MK6-83] | rapid conversion of LC3 from its cytoplasmic “I” form to the lipidated, punctate “II” form in both wild type (WT) and autophagy-deficient cells | prevented |  |  | 
CC1CC(C)(C)N(C(=O)CN2C(=O)c3ccccc3C2=O)c2ccccc21 (stereo not drawn) [ML-SA1] | rapid conversion of LC3 from its cytoplasmic “I” form to the lipidated, punctate “II” form in both wild type (WT) and autophagy-deficient cells |  | did not occur in ATG16L1^K490A cells | did not exhibit TFEB activation | 
